Data taken from patent US20250152604A1, “CONTRACEPTIVE METHODS WITH SCHEDULED BLEEDING EFFECTS” (ESTETRA SRL, priority 2022, published 2025).

Assay: Solubility description
Type: physicochemical
Conditions: for solubility in water: water (and aqueous solutions)

Row | solubility in acetone (acetone) | solubility in acetonitrile (acetonitrile) | solubility in ethanol (ethanol) | solubility in ethyl acetate (ethyl acetate) | solubility in methanol (methanol) | solubility in water | Compound
1 | sparingly soluble | slightly soluble | soluble | slightly soluble | soluble | poorly soluble | C[C@]12CC[C@@H]3c4ccc(O)cc4CC[C@H]3[C@@H]1[C@@H](O)[C@@H](O)C2O (stereo in doubt) [Estetrol monohydrate, estra-1,3,5 (10)-triene-3,15α, 16α, 17α-tetrol monohydrate]
2 | – | – | – | – | – | slight solubility | C[C@]12CCC(=O)C=C1[C@@H]1C[C@@H]1[C@H]1[C@@H]3[C@@H]4C[C@@H]4[C@@]4(CCC(=O)O4)[C@@]3(C)CC[C@@H]12 [Drospirenone, reference compound]
